Source: patent publication US20230085307A1, “PYRIDAZINONE COMPOUND AND HERBICIDE” (NISSAN CHEMICAL CORPORATION, priority 2019, published 2023)

Tests used:
lambsquarters [1] = assay: Test Example 4: herbicidal effect by soil treatment (Table 19, symbol O); type: in vivo, lambsquarters (Chenopodium album); settings: amount of applied herbicide 320 g/ha
In short: (§1)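 In this soil treatment, the formulated compound reached the seeds only through the soil: seeds were buried about 1.5 cm deep in sterilized diluvial soil, then the diluted emulsion was sprayed over the surface. After three weeks at 25° C. to 30° C. in a greenhouse, effects were graded on criteria from an earlier test.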

velvetleaf [2] = assay: Test Example 5: herbicidal effect by foliage application, plastic box (Table 20, symbol M); type: in vivo, velvetleaf (Abutilon theophrasti); settings: foliage application, 320 g/ha, evaluated three weeks after application
In short: (§2)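 Plants were sown into sterilized diluvial soil under about 1.5 cm cover and kept in a greenhouse at 25° C. to 30° C. Fourteen days on, foliage received an even spray of the diluted emulsion. Herbicidal or crop effect was judged three weeks afterwards.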

false cleavers = assay: Test Example 4: herbicidal effect by soil treatment (Table 19, symbol Q); type: in vivo, false cleavers (Galium spurium); settings: amount of applied herbicide 320 g/ha
In short: as §1

lambsquarters [3] = assay: Test Example 5: herbicidal effect by foliage application, plastic box (Table 20, symbol O); type: in vivo, lambsquarters (Chenopodium album); settings: foliage application, 320 g/ha, evaluated three weeks after application
In short: as §2

redroot pigweed [4] = assay: Test Example 4: herbicidal effect by soil treatment (Table 19, symbol N); type: in vivo, redroot pigweed (Amaranthus retroflexus); settings: amount of applied herbicide 320 g/ha
In short: as §1

green foxtail [5] = assay: Test Example 4: herbicidal effect by soil treatment (Table 19, symbol G); type: in vivo, green foxtail (Setaria viridis); settings: amount of applied herbicide 320 g/ha
In short: as §1

blackgrass [6] = assay: Test Example 5: herbicidal effect by foliage application, plastic box (Table 20, symbol J); type: in vivo, blackgrass (Alopecurus myosuroides); settings: foliage application, 320 g/ha, evaluated three weeks after application
In short: as §2

green foxtail [7] = assay: Test Example 5: herbicidal effect by foliage application, plastic box (Table 20, symbol G); type: in vivo, green foxtail (Setaria viridis); settings: foliage application, 320 g/ha, evaluated three weeks after application
In short: as §2

persian speedwell = assay: Test Example 5: herbicidal effect by foliage application, plastic box (Table 20, symbol R); type: in vivo, Persian speedwell (Veronica persica); settings: foliage application, 320 g/ha, evaluated three weeks after application
In short: as §2

chickweed = assay: Test Example 5: herbicidal effect by foliage application, plastic box (Table 20, symbol P); type: in vivo, common chickweed (Stellaria media); settings: foliage application, 320 g/ha, evaluated three weeks after application
In short: as §2

velvetleaf [8] = assay: Test Example 4: herbicidal effect by soil treatment (Table 19, symbol M); type: in vivo, velvetleaf (Abutilon theophrasti); settings: amount of applied herbicide 320 g/ha
In short: as §1

redroot pigweed [9] = assay: Test Example 5: herbicidal effect by foliage application, plastic box (Table 20, symbol N); type: in vivo, redroot pigweed (Amaranthus retroflexus); settings: foliage application, 320 g/ha, evaluated three weeks after application
In short: as §2

blackgrass [10] = assay: Test Example 4: herbicidal effect by soil treatment (Table 19, symbol J); type: in vivo, blackgrass (Alopecurus myosuroides); settings: amount of applied herbicide 320 g/ha
In short: as §1

southern crabgrass [11] = assay: Test Example 5: herbicidal effect by foliage application, plastic box (Table 20, symbol F); type: in vivo, southern crabgrass (Digitaria ciliaris); settings: foliage application, 320 g/ha, evaluated three weeks after application
In short: as §2

Chinese sprangletop = assay: Test Example 3: herbicidal effect by foliage application, Wagner pot (Table 18, symbol D); type: in vivo, chinese sprangletop (Leptochloa chinensis); settings: amount of applied herbicide 320 g/ha
In short: (§3)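 Plants were sown in alluvial soil held under 0.1–0.5 cm standing water and grown 14 days in a greenhouse at 25–30 °C. An emulsifiable formulation, water-diluted to the set dose, was then sprayed onto the foliage, and effects were scored three weeks later using previously defined criteria.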

southern crabgrass [12] = assay: Test Example 4: herbicidal effect by soil treatment (Table 19, symbol F); type: in vivo, southern crabgrass (Digitaria ciliaris); settings: amount of applied herbicide 320 g/ha
In short: as §1

Italian ryegrass [13] = assay: Test Example 5: herbicidal effect by foliage application, plastic box (Table 20, symbol K); type: in vivo, Italian ryegrass (Lolium multiflorum); settings: foliage application, 320 g/ha, evaluated three weeks after application
In short: as §2

wild oat [14] = assay: Test Example 4: herbicidal effect by soil treatment (Table 19, symbol I); type: in vivo, wild oat (Avena fatua); settings: amount of applied herbicide 320 g/ha
In short: as §1

wild oat [15] = assay: Test Example 5: herbicidal effect by foliage application, plastic box (Table 20, symbol I); type: in vivo, wild oat (Avena fatua); settings: foliage application, 320 g/ha, evaluated three weeks after application
In short: as §2

windgrass [16] = assay: Test Example 4: herbicidal effect by soil treatment (Table 19, symbol L); type: in vivo, windgrass (Apera spica-venti); settings: amount of applied herbicide 320 g/ha
In short: as §1

windgrass [17] = assay: Test Example 5: herbicidal effect by foliage application, plastic box (Table 20, symbol L); type: in vivo, windgrass (Apera spica-venti); settings: foliage application, 320 g/ha, evaluated three weeks after application
In short: as §2

barnyard grass [18] = assay: Test Example 4: herbicidal effect by soil treatment (Table 19, symbol H); type: in vivo, barnyard grass (Echinochloa crus-galli); settings: amount of applied herbicide 320 g/ha
In short: as §1

Italian ryegrass [19] = assay: Test Example 4: herbicidal effect by soil treatment (Table 19, symbol K); type: in vivo, Italian ryegrass (Lolium multiflorum); settings: amount of applied herbicide 320 g/ha
In short: as §1

barnyard grass [20] = assay: Test Example 5: herbicidal effect by foliage application, plastic box (Table 20, symbol H); type: in vivo, barnyard grass (Echinochloa crus-galli); settings: foliage application, 320 g/ha, evaluated three weeks after application
In short: as §2

barnyard grass [21] = assay: Test Example 3: herbicidal effect by foliage application, Wagner pot (Table 18, symbol H); type: in vivo, barnyard grass (Echinochloa crus-galli); settings: amount of applied herbicide 320 g/ha
In short: as §3

rice flat sedge = assay: Test Example 3: herbicidal effect by foliage application, Wagner pot (Table 18, symbol E); type: in vivo, rice flat sedge (Cyperus iria); settings: amount of applied herbicide 320 g/ha
In short: as §3

**Q.** Which results are given for `COc1ccccc1-c1sc2ccc(C(F)(F)F)cc2c1-c1c(O)c(C)nn(C)c1=O` [2-162]?
**A.** O: lambsquarters, herbicidal effect rating (lambsquarters [1]): 1 (Herbicidal rate of 5% or more and less than 20%); herbicidal effect on M: velvetleaf (criteria 0-5) (velvetleaf [2]): 2 (Herbicidal rate of 20% or more and less than 40%); Q: false cleavers, herbicidal effect rating (false cleavers): 0 (Herbicidal rate of 5% or less (almost no effect)); herbicidal effect on O: lambsquarters (criteria 0-5) (lambsquarters [3]): 0 (Herbicidal rate of 5% or less (almost no effect)); N: redroot pigweed, herbicidal effect rating (redroot pigweed [4]): 2 (Herbicidal rate of 20% or more and less than 40%); G: green foxtail, herbicidal effect rating (green foxtail [5]): 3 (Herbicidal rate of 40% or more and less than 70%); herbicidal effect on J: blackgrass (criteria 0-5) (blackgrass [6]): 0 (Herbicidal rate of 5% or less (almost no effect)); herbicidal effect on G: green foxtail (criteria 0-5) (green foxtail [7]): 0 (Herbicidal rate of 5% or less (almost no effect)); herbicidal effect on R: persian speedwell (criteria 0-5) (persian speedwell): 2 (Herbicidal rate of 20% or more and less than 40%); herbicidal effect on P: chickweed (criteria 0-5) (chickweed): 5 (Herbicidal rate of 90% or more (almost completely withered)); M: velvetleaf, herbicidal effect rating (velvetleaf [8]): 0 (Herbicidal rate of 5% or less (almost no effect)); herbicidal effect on N: redroot pigweed (criteria 0-5) (redroot pigweed [9]): 3 (Herbicidal rate of 40% or more and less than 70%); J: blackgrass, herbicidal effect rating (blackgrass [10]): 0 (Herbicidal rate of 5% or less (almost no effect)); herbicidal effect on F: southern crabgrass (criteria 0-5) (southern crabgrass [11]): 0 (Herbicidal rate of 5% or less (almost no effect)); herbicidal effect on D: Chinese sprangletop (Chinese sprangletop): 0 (Herbicidal rate of 5% or less (almost no effect)); F: southern crabgrass, herbicidal effect rating (southern crabgrass [12]): 0 (Herbicidal rate of 5% or less (almost no effect)); herbicidal effect on K: Italian ryegrass (criteria 0-5) (Italian ryegrass [13]): 0 (Herbicidal rate of 5% or less (almost no effect)); I: wild oat, herbicidal effect rating (wild oat [14]): 0 (Herbicidal rate of 5% or less (almost no effect)); herbicidal effect on I: wild oat (criteria 0-5) (wild oat [15]): 0 (Herbicidal rate of 5% or less (almost no effect)); L: windgrass, herbicidal effect rating (windgrass [16]): 0 (Herbicidal rate of 5% or less (almost no effect)); herbicidal effect on L: windgrass (criteria 0-5) (windgrass [17]): 0 (Herbicidal rate of 5% or less (almost no effect)); H: barnyard grass, herbicidal effect rating (barnyard grass [18]): 0 (Herbicidal rate of 5% or less (almost no effect)); K: Italian ryegrass, herbicidal effect rating (Italian ryegrass [19]): 0 (Herbicidal rate of 5% or less (almost no effect)); herbicidal effect on H: barnyard grass (criteria 0-5) (barnyard grass [20]): 0 (Herbicidal rate of 5% or less (almost no effect)); herbicidal effect on H: barnyard grass (barnyard grass [21]): 3 (Herbicidal rate of 40% or more and less than 70%); herbicidal effect on E: rice flat sedge (rice flat sedge): 3 (Herbicidal rate of 40% or more and less than 70%)
